We go through 13 molecules from patent US5403932A, “Phosphoramidates useful as antitumor agents” (Research Corporation Technologies, Inc., priority 1994, dated 1995).

Molecules are shown by their SMILES. Where two headings read alike, the source gives them in different places. A value given as a limit tells only on which side of the number the result lay.

In one assay the test system is B16 melanoma cells. Nature of the assay: Cytotoxicity against B16 melanoma cells, colony formation. The following applies: B16 mouse melanoma, 2 h treatment; read-out: Drug Concentration required to kill 90% of Clonogenic Tumor Cells In Vitro (LC90), B/16. In kind it is cell-based. The protocol:
B16 melanoma cells in exponential growth (2-3×10^6 cells in 10 ml of serum-free MEM medium) were treated with drug for 2 hr. The cells were separated, washed, and resuspended in MEM medium supplemented with 10% fetal bovine serum. The cells were plated in 60-mm culture dishes at a density of 50-50,000 cells/plate (depending upon the drug concentration used) and then incubated for 8 days in a CO2 incubator at 37°. The colonies were fixed and stained with 0.5% crystal violet in ethanol and counted. The log of the surviving fraction was plotted against drug concentration, and from this plot the concentration required to reduce the colony number to 10% of control (LC90) was determined.

Assay [1] deals with HT29 human colon cancer cells. Kind of assay: Aerobic and hypoxic selectivity against human colon cancer HT29 cells, colony formation. In kind it is cell-based. The note with it: 4 h. As for the experimental part:
HT29 human colon cancer cells were maintained in exponential growth in α-MEM medium supplemented with 10% fetal bovine serum and 25 mM HEPES buffer, and cultured at 37° C. and 3% CO2. For drug treatments, 1-2×10^6 cells in 10 ml of medium were transferred to glass reaction vials. For the hypoxic experiments, the medium was first gassed for 3 hr with 95% nitrogen/5% CO2 to achieve a partial pressure of oxygen <100 ppm. These cell suspensions were then treated with drug at different concentrations under either aerobic or hypoxic conditions for 4 hr in the reaction vials. The medium was removed, the cells were washed, and a colony formation assay was carried out as described above in Example 15. Colonies with […] 50 cells were counted 12-14 days after plating. The log of the surviving fraction was plotted against drug concentration, and from this plot the concentration required to reduce the colony number to 10% of control (LC90) was determined. The results of this test on representative compounds of the present invention are depicted in Table 4.

For assay [2], the system named is KHT/iv cells (mouse KHT sarcoma). Nature of the assay: Hypoxic cell selectivity using KHT/iv cells, clonogenic assay. The following applies: 4 h at 37°; for LC99, Aerobic: aerobic (95:5 air:CO2); for LC99, Hypoxic: hypoxic (95:5 nitrogen:CO2). The class given is cell-based. The protocol:
KHT/iv cells were adapted to cell culture from tile mouse KHT sarcoma by Dietmar Siemann, University of Rochester. Cells were maintained in Eagle's basal medium and 10% fetal calf serum for all experiments. Cells in exponential growth were trypsinized from monolayer cultures and separated from one another by agitation in a gas-tight syringe at a density of 1-2×10^7 cells/ml for 15 minutes at 37°. The cells were then resuspended in HEPES-buffered Eagle's medium contained in stirred gas-tight vials at a final density of 2×10^7 cells/ml; before cells or drugs were added, the vials were pre-equilibrated with humidified gas having tile composition 95:5 air:CO2 for aerobic treatment or 95:5 nitrogen:CO2 from hypoxic treatment. Oxygen tension in the hypoxic medium was approximately 100 ppm after tile equilibration period. Drug was dissolved a volume of ethanol that would give a final ethanol concentration of 1% in the medium; this concentration of ethanol had no effect on the plating efficiency of control cell preparations. Cells were incubated with drug under aerobic or hypoxic conditions at 37° for 4 hours. The cells were then removed from the vials, washed with drug-free medium, counted, and plated for cell survival using a standard clonogenic assay. Cell surviving fraction was plotted vs. drug concentration, and the LC99 values were obtained from the least squares equation.

In assay [3] the test system is P388/O (cyclophosphamide sensitive) murine leukemia cells. Kind of assay: Soft agar colony-forming assay, in vitro cytotoxicity against cyclophosphamide-sensitive P388 murine leukemia. The note with it: 1 h at 37°, 99% cell kill. The class given is cell-based, mouse. The protocol:
(§1) The In Vitro cytotoxic activity of representative compounds under hypoxic and aerobic conditions were evaluated as follows.
(§2) A soft agar colony-forming assay according to the procedure of Chu and Fischer, Biochem. Pharmacol., 17, 753-767 (1968) was used and modified where necessary. Cultured mouse L1210 and P388 sensitive cells were purchased from EG&G Mason Research Institute, Tumor Bank, Worchester, Ma. Cultured cyclophosphamide resistant L1210 and P388 cells were obtained from Dr. Robert Struck of Southern Research Institute, Birmingham, Ala. Typically, the desired cells (2-3×10^6 cells/ml) in exponential growth and suspended in 6.5 ml of Fischer's medium (Gibco Lab., Grand Island, N.Y.) were divided into six groups (1 control and 5 treated groups) containing an equal number of cells in 1 ml. These cells were then treated with varying doses of drug diluted with media to give a total volume of 10 ml, and incubated for one hour at 37° C. The cells were washed three times with 3 ml of supplemented Fischer's medium (containing 10% horse serum) by centrifuge (800×g), removal of media by suction, and resuspension of the pellet in media (5 ml). A 1-ml portion was used to determine the cell count with a Coulter counter. From the remainder, a 5-ml suspension of cells was prepared at a density of 10^5 cells/ml, and between 10^2 and 10^5 cells were placed on soft agar and incubated at 37° C. Colonies were counted after 10 days. The log of the surviving fraction was plotted vs. drug concentration and from this plot the LC99 was obtained. (By definition, the LC99 value represents the concentration of drug necessary to effect a 99% cell kill.)

Assay [4] deals with L1210/O (cyclophosphamide sensitive) murine leukemia cells. Kind of assay: Soft agar colony-forming assay, in vitro cytotoxicity against cyclophosphamide-sensitive L1210 murine leukemia. The note with it: 1 h at 37°, 99% cell kill. The class given is cell-based, mouse. The protocol:
as §1, §2

For assay [5], the system named is L1210/CP (cyclophosphamide resistant) murine leukemia cells. Kind of assay: Soft agar colony-forming assay, in vitro cytotoxicity against cyclophosphamide-resistant L1210 murine leukemia. The following applies: 1 h at 37°, 99% cell kill. In kind it is cell-based, mouse. The protocol:
as §1
as §2, with “From the remainder, a 5-ml suspension of cells was prepared at a density of 10^5 cells/ml, and between 10^2 and 10^5 cells were placed on soft agar and incubated at 37° C.” left out, “The log of the surviving fraction was plotted vs. drug concentration and from this plot the LC99 was obtained. (By definition, the LC99 value represents the concentration of drug necessary to effect a 99% cell kill.)” left out

Assay [6] has as its system P388/CP (cyclophosphamide resistant) murine leukemia cells. Kind of assay: Soft agar colony-forming assay, in vitro cytotoxicity against cyclophosphamide-resistant P388 murine leukemia. The class given is cell-based, mouse. The following applies: 1 h at 37°, 99% cell kill. As for the experimental part: as §1
as §2, with “From the remainder, a 5-ml suspension of cells was prepared at a density of 10^5 cells/ml, and between 10^2 and 10^5 cells were placed on soft agar and incubated at 37° C.” left out, “The log of the surviving fraction was plotted vs. drug concentration and from this plot the LC99 was obtained. (By definition, the LC99 value represents the concentration of drug necessary to effect a 99% cell kill.)” left out

Setting [7] is: Table 3, aerobic, read-out: Drug Concentration required to kill 90% of Clonogenic Tumor Cells In Vitro (LC90), HT29 Aerobic.
[8] abbreviates: Table 3, hypoxic (95% nitrogen/5% CO2), read-out: Drug Concentration required to kill 90% of Clonogenic Tumor Cells In Vitro (LC90), HT29 Hypoxic.
Where [9] appears, read: Table 4, aerobic, read-out: Drug Concentration required to kill 90% of Clonogenic Tumor Cells In Vitro (LC90), HT29 Aerobic.
Setting [10] is: Table 4, hypoxic (95% nitrogen/5% CO2), read-out: Drug Concentration required to kill 90% of Clonogenic Tumor Cells In Vitro (LC90), HT29 Hypoxic.

For `CCOC(=O)CC(OP(=O)(N(CCCl)CCCl)N(CCCl)CCCl)c1cc([N+](=O)[O-])ccn1` (centres unmarked) [Compound 17, O-(1-(4-nitro-2-pyridyl)-2-carbethoxyethyl)-N,N,N',N'-tetrakis(2-Chloroethyl)phosphoramide], the IC90 in the assay on B16 melanoma cells was determined as 50 µM; in assay [1] (setting [7]), 80 µM; in assay [1] (setting [8]), 35 µM.
The like results for `CCOC(=O)CC(OP(=O)(N(CCCl)CCCl)N(CCCl)CCCl)c1ccc([N+](=O)[O-])c(C)n1` (centres unmarked) [Compound 16, O-(1(6-methyl-5-nitro-2-pyridyl)-2-carbethoxyethyl)-N,N,N'N'-tetrakis(2-chloroethyl)phosphoramide] were, in that order, 150 µM, 110 µM and 25 µM.
Regarding `NP(=O)(OCc1ccc([N+](=O)[O-])cc1)N(CCCl)CCCl` (centres unmarked) [Compound 4-nitro], in assay [2], the “LC99, Aerobic” value is on record as 320 and the “LC99, Hypoxic” value is listed as 120.
`COC(=O)CC(OP(N)(=O)N(CCCl)CCCl)c1ccccc1` (centres unmarked) [Ph, reference compound]: the LC99 in assay [3] stood at 300; in assay [4], 350.
Turning to `CCOC(=O)CC(OP(=O)(N(CCCl)CCCl)N(CCCl)CCCl)c1ccc([N+](=O)[O-])cc1` (centres unmarked) [Compound 12, O-(1-(4-nitrophenyl)-2-carbethoxyethyl)-N,N,N',N'-tetrakis(2-chloroethyl)phosphoramide], the IC90 in the assay with B16 melanoma cells was over 100 µM; in assay [1] (setting [7]), 80 µM; in assay [1] (setting [8]) it was 12 µM.
The like results for `CN(C)CCOC(=O)CC(OP(=O)(N(CCCl)CCCl)N(CCCl)CCCl)c1ccc([N+](=O)[O-])cc1` (centres unmarked) [Compound 13, O-(1-(4-nitrophenyl)-2-(2-N,N-dimethylaminoethoxycarbonyl)ethyl)-N,N,N'N'-tetrakis-(2-chloroethyl)phosphoramide] were, in that order, under 2 µM, 60 µM and 35 µM.
On to `CC(OP(=O)(N(CCCl)CCCl)N(CCCl)CCCl)c1ccc([N+](=O)[O-])cc1` (centres unmarked), for which the IC90 in assay [1] (setting [9]) was over 500 µM; in assay [1] (setting [10]) it was 45 µM.
In the case of `COC(=O)CC(OP(N)(=O)N(CCCl)CCCl)c1ccc([N+](=O)[O-])cc1` (centres unmarked) [4-NO2 Ph, methyl 3-(4-nitrophenyl)-3-(N,N-bis-(2-chloroethyl)phosphorodiamido) propionate], the LC99 was determined as 152 in assay [5], 82 in assay [3], 77 in assay [6] and 138 in assay [4].
`CCOC(=O)CC(OP(N)(=O)N(CCCl)CCCl)c1cc(CN(C)C)cc2cc([N+](=O)[O-])cnc12` (centres unmarked): the IC90 in assay [1] (setting [9]) amounted to 700 µM; in assay [1] (setting [10]) it was 95 µM.
As for `CCOC(=O)CC(OP(=O)(N(CCCl)CCCl)N(CCCl)CCCl)c1ccc([N+](=O)[O-])s1` (centres unmarked) [Compound 15, O-(1-(5-nitro-2-thiophene)-2-carbethoxyethyl)-N,N,N'N'-tetrakis(2-chloroethyl)phosphoramide], the IC90 in the assay with B16 melanoma cells came out at 3 µM.
As to `NP(=O)(OCc1ccccc1[N+](=O)[O-])N(CCCl)CCCl` (centres unmarked) [Compound 2-nitro], in assay [2], the “LC99, Aerobic” value is listed as 700 and the “LC99, Hypoxic” value was 230.
With `COC(=O)CC(OP(N)(=O)N(CCCl)CCCl)c1ccccc1[N+](=O)[O-]` (centres unmarked) [2-NO2 Ph, methyl 3-(2-nitrophenyl)-3-(N,N-bis(2-chloroethyl)phosphorodiamido)propionate], the LC99 in assay [3] was determined as 134; in assay [4], 172.
With `CN(C)CCOC(=O)CC(OP(=O)(N(CCCl)CCCl)N(CCCl)CCCl)c1ccc([N+](=O)[O-])s1` (centres unmarked) [Compound 14, O-(1-(5-nitro-2-thiophene)-2-(2-N,N-dimethylaminoethoxycarbonyl)ethyl)-N,N,N'N'-tetrakis-(2-chloroethyl)-phosphoramide], the IC90 was determined as 2.8 µM in the assay on B16 melanoma cells, 7.5 µM in assay [1] (setting [7]) and 3 µM in assay [1] (setting [8]).
